The results in this text go back to patent US20100324142A1, “HYDROCORTISONE DERIVATIVES AND USE THEREOF FOR THERAPEUTIC OR COSMETIC INDICATIONS” (priority 2007, published 2010).

SMILES strings stand for the structures.

The series deals with physiopathological hair loss of unknown cause (patients suffering from alopecia). The experiment in a line: Double blind clinical trial on two hundred patients suffering from alopecia. Format: in vivo, human. The protocol: Clinical Trial (Double Blind) on Two Hundred Patients Suffering from Alopecia
The action of the compound according to the invention, produced as described in Example 1, was assessed on a sample population of two hundred people, half of whom were of the female sex. All the persons included in the sample had been affected for at least four months by physiopathological hair loss of unknown cause.
A double blind trial was set up, in which one hundred patients were administered with a solution containing the compound according to the invention in bidistilled water and one hundred received a placebo solution. The solution according to the invention contained as excipients: sodium hydroxide, benzyl benzoate and benzalkonium chloride.

`CC1(CCC(=O)O)C(=O)CCC2C1C(O)CC1(C)C2CCC1(O)C(=O)CO` (stereo not drawn) [compound according to the invention, 3-[3,5-dihydroxy-3-(2-hydroxy-acetyl)-3a,6-dimethyl-7-oxo-dodecahydro-cyclo-penta[α]naphtalen-6-yl]-propionic acid]: the “patients with good hair regrowth observed” value (at the end of the trial, solution of the compound in bidistilled water, one hundred treated patients) stood at 38%. In addition, for the setting “even after many months of treatment”, the adverse side effects result is “total absence of adverse side effects”. In addition, under “within the first week of treatment, solution of the compound in bidistilled water, one hundred treated patients, double blind vs placebo”, the “subjects in whom hair loss was arrested” value came to 94%.
